Assay results published in patent US20060189546A1, “Compounds for treating autoimmune and demyelinating diseases” (priority 2005, published 2006).

Tested on: colorectal cancer cell lines (HT29 & HCT116)
Assay: Microarray gene expression, cells grown with Symadex at the GI50 concentration
Format: cell-based, human
Source text: Two colorectal cancer cell lines (HT29 & HCT116) were chosen for study, whose behavior as rapidly proliferating invasive cells could be generalized to many other such cell types from different tissue origins. The two lines were immortalized colon carcinomas. Their gene expression patterns are known to mimic the behavior of neuro-enteric cells and therefore provide an appropriate simulation of the kinds of regulatory patterns that would be found in cells of similar epithelial or endothelial origin. Cells with these ontological roots are also suitable models for the kinds of autoimmune and inflammatory susceptibilities that are common in tissues of neuroenteric origin, such as those in which inflammatory bowel disease would present itself.
Frozen cell pellets were lysed in triplicate and total RNA isolated by purification over spin columns (all reagents from Ambion). After QC acceptance for purity, total RNA was converted to cRNA by linear amplification and 10 μg samples were applied to CodeLink Human Whole Genome Bioarrays (GE Healthcare and GenUs Biosystems).
Arrays were processed in triplicate and comparisons made after robust statistical analysis of replicate variability. […] False discovery rates and representation in standardized gene ontologies/pathways were then determined by filtering the “fold” changes in expression with open access software packages, EASE and GoMiner, and with Pathways Analysis (Ingenuity Systems). Functional annotations were then explored further in the MedMiner literature search environment.
A listing of these is shown in Table 3, in which the first column data presents the fold change against control, the second column cites the gene symbol, the third column cites the Genbank Accession, and the fourth column provides an abridged description of the gene's function.

CCN(CC)CCNc1ccc2ncn3c4ccc(O)cc4c(=O)c1c23 [Symadex™, 5-[[(diethylamino)ethyl]amino]-8-hydroxyimidazo[4,5,1-de]-acridine-6-one]
Mean fold change over control: GGH (NM_003878): −1.96
Mean fold change over control: MPZL1 (NM_003953): −2.04
Mean fold change over control: C3AR1 (NM_004054): −15.52
Mean fold change over control: EIF2S1 (NM_004094): −2.13
Mean fold change over control: FEN1 (NM_004111): −2.87
Mean fold change over control: SLC1A2 (NM_004171): −11.21
Mean fold change over control: SLC9A3 (NM_004174): −15.57
Mean fold change over control: SNRPD3 (NM_004175): −2.31
Mean fold change over control: CDKL1 (NM_004196): −8.14
Mean fold change over control: PTTG1 (NM_004219): −2.43
Mean fold change over control: SLC22A13 (NM_004256): −11.51
Mean fold change over control: BAG2 (NM_004282): −2.22
Mean fold change over control: BAD (NM_004322): −2.08
Mean fold change over control: ERH (NM_004450): −3.39
Mean fold change over control: KCNQ2 (NM_004518): −24.13
Mean fold change over control: MYBPC2 (NM_004533): −21.22
Mean fold change over control: SPOCK (NM_004598): −6.57
Mean fold change over control: NMI (NM_004688): −2.41
Mean fold change over control: CCNB2 (NM_004701): −2.51
Mean fold change over control: PDCD5 (NM_004708): −2.21
Mean fold change over control: ZW10 (NM_004724): −2.31
Mean fold change over control: DDX1 (NM_004939): −2.09
Mean fold change over control: IBSP (NM_004967): −58.56
Mean fold change over control: CCL23 (NM_005064): −12.99
Mean fold change over control: COX6A2 (NM_005205): −23.19
Mean fold change over control: GJB5 (NM_005268): −62.09
Mean fold change over control: GPR15 (NM_005290): −80.43
Mean fold change over control: GPR24 (NM_005297): −13.80
Mean fold change over control: SULT1E1 (NM_005420): −10.91
Mean fold change over control: RQCD1 (NM_005444): −2.38
Mean fold change over control: ZNF265 (NM_005455): −2.03
Mean fold change over control: STMN1 (NM_005563): −2.41
Mean fold change over control: LCP2 (NM_005565): −11.85
Mean fold change over control: VDAC3 (NM_005662): −2.22
Mean fold change over control: D8S2298E (NM_005671): −1.88
Mean fold change over control: SCAMP3 (NM_005698): −2.00
Mean fold change over control: THOC4 (NM_005782): −3.41
Mean fold change over control: KLRG1 (NM_005810): −24.24
Mean fold change over control: DSCR1L1 (NM_005822): −9.75
Mean fold change over control: MSLN (NM_005823): −17.46
Mean fold change over control: SLC35B1 (NM_005827): −2.23
Mean fold change over control: CD5L (NM_005894): −13.25
Mean fold change over control: MCM6 (NM_005915): −1.97
Mean fold change over control: MCM7 (NM_005916): −2.69
Mean fold change over control: CD164 (NM_006016): −2.14
Mean fold change over control: DLEU2 (NM_006021): −3.39
Mean fold change over control: C10ORF7 (NM_006023): −2.11
Mean fold change over control: NFATC1 (NM_006162): −16.69
Mean fold change over control: TIMM23 (NM_006327): −2.02
Mean fold change over control: PPIH (NM_006347): −2.49
Mean fold change over control: SYNCRIP (NM_006372): −2.23
Mean fold change over control: SSSCA1 (NM_006396): −2.20
Mean fold change over control: RNASEH2A (NM_006397): −2.31
Mean fold change over control: SIVA (NM_006427): −2.78
Mean fold change over control: USP16 (NM_006447): −66.26
Mean fold change over control: PAICS (NM_006452): −2.03
Mean fold change over control: RPC62 (NM_006468): −2.22
Mean fold change over control: PIR51 (NM_006479): −3.73
Mean fold change over control: FARS1 (NM_006567): −2.11
Mean fold change over control: RBBP9 (NM_006606): −8.81
Mean fold change over control: NMU (NM_006681): −2.12
Mean fold change over control: U2AF1 (NM_006758): −1.99
Mean fold change over control: PRSS21 (NM_006799): −22.21
Mean fold change over control: KIF2C (NM_006845): −2.52
Mean fold change over control: CENTA1 (NM_006869): −19.89
Mean fold change over control: TRH (NM_007117): −8.14
Mean fold change over control: ZNF258 (NM_007167): −2.66
Mean fold change over control: DUSP12 (NM_007240): −2.18
Mean fold change over control: HSGT1 (NM_007265): −2.08
Mean fold change over control: DTYMK (NM_012145): −3.07
Mean fold change over control: TPSD1 (NM_012217): −13.71
Mean fold change over control: TFEC (NM_012252): −20.30
Mean fold change over control: RAD54B (NM_012415): −2.04
Mean fold change over control: SPO11 (NM_012444): −14.75
Mean fold change over control: TIMM10 (NM_012456): −2.23
Mean fold change over control: UMPK (NM_012474): −1.92
Mean fold change over control: HMMR (NM_012484): −2.94
Mean fold change over control: DNAJD1 (NM_013238): −2.24
Mean fold change over control: TAC3 (NM_013251): −12.26
Mean fold change over control: RACGAP1 (NM_013277): −2.31
Mean fold change over control: ALG5 (NM_013338): −2.71
Mean fold change over control: ANAPC4 (NM_013367): −1.92
Mean fold change over control: NRG1 (NM_013956): −17.54
Mean fold change over control: SLC27A6 (NM_014031): −18.72
Mean fold change over control: MRPL13 (NM_014078): −2.16
Mean fold change over control: TMEM4 (NM_014255): −2.21
Mean fold change over control: PLK4 (NM_014264): −2.39
Mean fold change over control: ITGB3BP (NM_014288): −2.73
Mean fold change over control: SULT4A1 (NM_014351): −293.18
Mean fold change over control: ZNRD1 (NM_014596): −2.17
Mean fold change over control: MEA (NM_014623): −2.39
Mean fold change over control: DCLRE1A (NM_014881): −3.14
Mean fold change over control: KIAA0089 (NM_015141): −7.23
Mean fold change over control: RCOR1 (NM_015156): −7.09
Mean fold change over control: ARL6IP (NM_015161): −2.29
Mean fold change over control: EGFL6 (NM_015507): −28.71
Mean fold change over control: GMNN (NM_015895): −2.81
Mean fold change over control: MRPL11 (NM_016050): −2.97
Mean fold change over control: MYO15A (NM_016239): −50.59
Mean fold change over control: DNAJB11 (NM_016306): −2.15
Mean fold change over control: POLR3K (NM_016310): −2.24
Mean fold change over control: NR2E3 (NM_016346): −14.89
Mean fold change over control: WWOX (NM_016373): −2.07
Mean fold change over control: RNF141 (NM_016422): −2.29
Mean fold change over control: POLA (NM_016937): −1.88
Mean fold change over control: PDE11A (NM_016953): −16.85
Mean fold change over control: MRPL39 (NM_017446): −2.20
Mean fold change over control: LIMS2 (NM_017980): −57.61
Mean fold change over control: FAIM (NM_018147): −3.32
Mean fold change over control: LPAAT-E (NM_018361, first entry): −11.94
Mean fold change over control: LPAAT-E (NM_018361, second entry): −2.40
Mean fold change over control: SIAT7A (NM_018414): −11.76
Mean fold change over control: LRP1B (NM_018557): −15.01
Mean fold change over control: TCP11 (NM_018679): −9.82
Mean fold change over control: BCAP29 (NM_018844): −2.17
Mean fold change over control: GDAP1 (NM_018972): −2.44
Mean fold change over control: ROBO4 (NM_019055): −11.95
Mean fold change over control: POLE4 (NM_019896): −2.04
Mean fold change over control: SARA1 (NM_020150): −2.14
Mean fold change over control: RAD18 (NM_020165): −2.28
Mean fold change over control: MRPL1 (NM_020236): −2.02
Mean fold change over control: NUP107 (NM_020401): −2.68
Mean fold change over control: KCNJ12 (NM_021012): −15.93
Mean fold change over control: MRPL23 (NM_021134): −2.29
Mean fold change over control: ATP2B3 (NM_021949): −9.43
Mean fold change over control: NUCKS (NM_022731): −2.02
Mean fold change over control: MIS12 (NM_024039): −2.20
Mean fold change over control: SUV39H2 (NM_024670): −2.33
Mean fold change over control: TXNDC (NM_030755): −2.13
Mean fold change over control: PHAX (NM_032177): −2.17
Mean fold change over control: PCDH7 (NM_032457): −19.65
Mean fold change over control: GPR54 (NM_032551): −2.56
Mean fold change over control: PHF5A (NM_032758): −2.95
Mean fold change over control: SYNE1 (NM_033071): −1481.77
Mean fold change over control: SLC7A13 (NM_138817): −27.75
Mean fold change over control: BBS2 (T26496): −23.65
number of down-regulated genes significantly represented in both cell types (array of 55,000 gene fragment accessions): 271
